# ChEMBL document CHEMBL1153759, “Surface plasmon resonance-based detection of ladder-shaped polyethers by inhibition detection method” (Bioorg Med Chem Lett, 2009)
# pIC50, pKd: −log10 of the molar value. The source made the active and inactive calls. The rule behind the calls is not given here.
# Legend:
# [1] = biological target: 3',5'-cyclic-AMP phosphodiesterase 4D (Homo sapiens, UniProt Q08499); test: Binding affinity to recombinant PDE4D by surface plasmon resonance assay
# [2] = (§1) Inhibition of bovine spleen PDE2 by surface plasmon resonance assay; set-up: species or system Bos taurus
# [3] = organism: Bos taurus; test: Inhibition of bovine spleen PDE2 up to 100 uM after 20 to 40 seconds by surface plasmon resonance assay
# [4] = Binding affinity to bovine spleen PDE2 by surface plasmon resonance assay; set-up: species or system Bos taurus
# [5] = organism: Bos taurus; test: as §1
# Chain of 3',5'-cyclic-AMP phosphodiesterase 4D (Q08499 whole entry): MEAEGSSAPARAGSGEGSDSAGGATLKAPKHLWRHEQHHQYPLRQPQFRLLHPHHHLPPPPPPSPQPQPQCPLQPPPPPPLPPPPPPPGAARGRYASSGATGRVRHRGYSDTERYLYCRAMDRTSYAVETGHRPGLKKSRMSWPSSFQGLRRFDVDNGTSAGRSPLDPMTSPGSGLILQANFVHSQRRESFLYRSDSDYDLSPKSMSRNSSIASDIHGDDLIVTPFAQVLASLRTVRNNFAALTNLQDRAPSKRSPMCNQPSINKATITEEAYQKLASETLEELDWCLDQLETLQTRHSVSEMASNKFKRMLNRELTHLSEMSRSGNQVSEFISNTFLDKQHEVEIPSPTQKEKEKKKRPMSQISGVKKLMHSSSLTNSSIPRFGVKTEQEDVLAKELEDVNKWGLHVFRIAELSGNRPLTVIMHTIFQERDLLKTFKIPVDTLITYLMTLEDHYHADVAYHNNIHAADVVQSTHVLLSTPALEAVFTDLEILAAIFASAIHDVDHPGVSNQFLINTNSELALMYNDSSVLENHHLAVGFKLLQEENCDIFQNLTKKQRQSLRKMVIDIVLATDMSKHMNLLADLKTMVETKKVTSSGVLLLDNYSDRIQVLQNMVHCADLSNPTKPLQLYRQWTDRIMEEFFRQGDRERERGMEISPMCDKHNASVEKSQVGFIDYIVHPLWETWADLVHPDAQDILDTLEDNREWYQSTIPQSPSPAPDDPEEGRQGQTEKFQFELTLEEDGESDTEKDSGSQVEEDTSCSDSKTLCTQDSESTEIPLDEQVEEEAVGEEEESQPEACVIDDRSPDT
SMILES,pKd [1],pIC50 [2],inhibition [3],pKd [4],inhibition [5]
C[C@@]12CC[C@@H]3O[C@H](CO)[C@@H](O)C[C@H]3O[C@H]1C[C@H]1O[C@@H](CCO)[C@H](O)C[C@@H]1O2,4.54,< 4.00,–,–,–
OC[C@H]1O[C@@H](CCOCc2ccccc2)[C@H](OCc2ccccc2)C[C@@H]1O,4.10,< 4.00,–,–,–
CC[C@@H](C(=O)[C@@H](C)[C@@H](O)[C@H](C)[C@@H]1O[C@@H]([C@@H](CC)C(=O)O)CC[C@@H]1C)[C@H]1O[C@]2(C=C[C@@H](O)[C@]3(CC[C@@](C)([C@H]4CC[C@](O)(CC)[C@H](C)O4)O3)O2)[C@H](C)C[C@@H]1C [SALINOMYCIN SODIUM],–,< 4.00,–,–,–
C=C(C=O)C[C@@H]1C[C@H](O)[C@]2(C)O[C@@H]3C[C@@H]4O[C@@H]5C[C@]6(C)O[C@]7(C)CC[C@@H]8O[C@@H]9C[C@]%10(C)O[C@@H]%11C(C)=CC(=O)O[C@H]%11C[C@H]%10O[C@H]9C[C@@H](C)[C@H]8O[C@H]7C[C@H]6O[C@H]5C/C=C\[C@H]4O[C@H]3C[C@H]2O1 [BREVETOXIN],5.42,5.74,Active,–,–
C[C@@]12CC[C@@H]3O[C@@H]4C[C@@H]5O[C@@H]6C[C@H](O)[C@@H](CO)O[C@H]6CC[C@@]5(C)O[C@H]4C[C@H]3O[C@H]1C[C@H]1O[C@@H](CCOCc3ccccc3)[C@H](OCc3ccccc3)C[C@@H]1O2,5.32,5.04,–,–,–
C=CCC(=C)/C=C/[C@@](C)(O)[C@H]1O[C@@H]2C[C@@H]3O[C@@H]4C[C@@H]5O[C@@H]6C[C@@H]7O[C@@H]8C[C@@H]9O[C@@H]%10C[C@@H]%11O[C@](C)(CCOS(=O)(=O)O)[C@@H](OS(=O)(=O)O)C[C@H]%11O[C@H]%10C[C@H]9O[C@H]8CC[C@@]7(C)O[C@@]6(C)CC[C@H](C)[C@H]5O[C@H]4C[C@@]3(C)O[C@H]2CC1=C [YESSOTOXIN],6.00,5.52,Active,5.66,–
C[C@@]12CC[C@@H]3O[C@H](CO)[C@@H](O)C[C@H]3O[C@H]1C[C@H]1O[C@@H](CCOCc3ccccc3)[C@H](OCc3ccccc3)C[C@@H]1O2,4.96,4.89,–,–,–
C=CCC(=C)/C=C/[C@@](C)(O)[C@H]1O[C@@H]2C[C@@H]3O[C@@H]4C[C@@H]5O[C@@H]6C[C@@H]7O[C@@H]8C[C@@H]9O[C@@H]%10C[C@@H]%11O[C@](C)(CCO)[C@@H](O)C[C@H]%11O[C@H]%10C[C@H]9O[C@H]8CC[C@@]7(C)O[C@@]6(C)CC[C@H](C)[C@H]5O[C@H]4C[C@@]3(C)O[C@H]2CC1=C [DESULFATED YESSOTOXIN],5.70,5.77,Active,–,Dose-dependent effect
